Earlier results, collected in paper PMC6413085, “A Validated HPLC-MS/MS Assay for 14-O-[(4,6-Diaminopyrimidine-2-yl)thioacetyl] Mutilin in Biological Samples and Its Pharmacokinetic, Distribution and Excretion via Urine and Feces in Rats” (Molecules, 2019).
Like-named read-outs stand apart in the source and are kept apart here.

Legend:
[1] = rat, in vivo, cited from earlier work; for time at which Cmax was achieved: 5 mg/kg
[2] = rabbit, in vivo, iv, 25 mg/kg; cited from earlier work
[3] = in vivo; cited from earlier work

SMILES | time at which Cmax was achieved ([1]; iv) [h] | time at which Cmax was achieved ([1]; po) [h] | absolute bioavailability following oral administration ([1]; po) [%] | time at which Cmax was achieved [2] [h] | absolute bioavailability following oral administration [3] [%]
C=C[C@]1(C)C[C@@H](OC(=O)CSc2nnc(N)s2)[C@]2(C)[C@H](C)CC[C@]3(CCC(=O)[C@H]32)[C@@H](C)[C@@H]1O [14-O-[(2-amino-1,3,4-thiadiazole-5-yl)thioacetyl] mutilin] | 0.08 | 0.75 | 35.81 | – | –
C=CC1(C)CC(OC(=O)CSc2nc(N)cc(O)n2)C2(C)C(C)CCC3(CCC(=O)C32)C(C)C1O (stereo not drawn) [14-O-[(4-amino-6-hydroxy-pyrimidine-2-yl)thioacetyl] mutilin] | – | – | – | 0.08 | –
C=C[C@]1(C)C[C@@H](OC(=O)CSC(C)(C)CNC(=O)[C@H](N)C(C)C)[C@]2(C)[C@H](C)CC[C@]3(CCC(=O)[C@H]32)[C@@H](C)[C@@H]1O [valnemulin] | – | – | 100 | – | 36.68
